Source: ChEMBL document CHEMBL6134848, “Deuteration Strategy-Inspired Design of Novel Diarylpyrimidine Derivatives as Potent Non-Nucleoside Reverse Transcriptase Inhibitors Featuring Improved Efficacy, Selectivity, and Druggability” (J Med Chem, 2025)

How the values were obtained:
[1] = Metabolic stability in human liver microsomes assessed as half life at 1 uM measured up to 45 mins by LC/MS/MS analysis; type: ADME, Microsome; details: microsomes, 0.75 h, 1 µM
[2] = AUC (0 to t) in Sprague-Dawley rat at 1 mg/kg, iv measured for 0.083 to 24 hrs by LC-MS/MS analysis; type: ADME, organism-based; details: in vivo, time 0.083-24 hrs
[3] = biological target: T1, Cytochrome P450 1A2 (Homo sapiens, UniProt P05177); experiment: Inhibition of CYP1A2 in human liver microsomes using phenacetin as substrate incubated for 15 to 45 mins by; type: ADME, Microsome
T1 sequence (P05177 whole entry): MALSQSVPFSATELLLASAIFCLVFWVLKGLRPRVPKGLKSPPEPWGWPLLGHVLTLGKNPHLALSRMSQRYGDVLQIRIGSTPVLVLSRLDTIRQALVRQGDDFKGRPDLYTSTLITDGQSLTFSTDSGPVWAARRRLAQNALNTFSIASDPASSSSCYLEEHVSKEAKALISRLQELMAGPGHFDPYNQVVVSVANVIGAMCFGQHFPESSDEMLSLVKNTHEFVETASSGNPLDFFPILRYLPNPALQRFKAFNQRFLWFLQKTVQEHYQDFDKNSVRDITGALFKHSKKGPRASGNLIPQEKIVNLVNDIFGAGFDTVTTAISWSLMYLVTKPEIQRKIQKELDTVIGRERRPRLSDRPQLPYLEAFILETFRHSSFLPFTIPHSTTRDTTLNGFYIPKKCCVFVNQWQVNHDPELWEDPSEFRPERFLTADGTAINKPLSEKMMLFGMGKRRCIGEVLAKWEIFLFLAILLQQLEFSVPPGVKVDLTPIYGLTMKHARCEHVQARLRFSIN

[4] = test system: Human immunodeficiency virus 1; experiment: Potency index, ratio of NVP EC50 to test compound EC50 for antiviral activity against wild-type HIV-1 IIIB infected in human MT4 cells assessed as protection against virus-induced cytopathicity measured after 5 days post-infection by MTT assay; type: functional
[5] = Stability in human plasma assessed as compound remaining at 1 uM measured after 2 hrs by LC-MS/MS analysis; type: ADME, cell-free; details: read-out: Stability
[6] = MRT (0 to t) in Sprague-Dawley rat at 10 mg/kg, po measured for 0.083 to 24 hrs by LC-MS/MS analysis; type: ADME, organism-based; details: in vivo, time 0.083-24 hrs
[7] = Protein binding in human plasma at 1 uM incubated for 6 hrs; type: ADME, cell-free; details: read-out: PPB (converted)
[8] = test system: Human immunodeficiency virus 1; experiment: Antiviral activity against drug-resistant HIV-1 harboring RT Y188L mutant infected in human MT4 cells assessed as protection against virus-induced cytopathicity measured after 5 days post-infection by MTT assay; type: functional, organism-based; details: Human immunodeficiency virus 1, MT4, 120 h
[9] = test system: Human immunodeficiency virus 1; experiment: Antiviral activity against drug-resistant HIV-1 harboring RT F227L/V106A mutant infected in human MT4 cells assessed as protection against virus-induced cytopathicity measured after 5 days post-infection by MTT assay; type: functional, organism-based; details: Human immunodeficiency virus 1, MT4, 120 h
[10] = Drug metabolism in human liver microsomes assessed as metabolic fraction at 1 uM measured up to 45 mins by LC/MS/MS analysis; type: ADME, Microsome; details: microsomes, 0.75 h, 1 µM
[11] = biological target: T2, Voltage-gated inwardly rectifying potassium channel KCNH2 (Homo sapiens, UniProt Q12809); experiment: Inhibition of hERG expressed in CHO cells assessed as fold increase by manual patch-clamp electrophysiology relative to RPV; type: toxicity, cell-based
T2 sequence (Q12809 whole entry): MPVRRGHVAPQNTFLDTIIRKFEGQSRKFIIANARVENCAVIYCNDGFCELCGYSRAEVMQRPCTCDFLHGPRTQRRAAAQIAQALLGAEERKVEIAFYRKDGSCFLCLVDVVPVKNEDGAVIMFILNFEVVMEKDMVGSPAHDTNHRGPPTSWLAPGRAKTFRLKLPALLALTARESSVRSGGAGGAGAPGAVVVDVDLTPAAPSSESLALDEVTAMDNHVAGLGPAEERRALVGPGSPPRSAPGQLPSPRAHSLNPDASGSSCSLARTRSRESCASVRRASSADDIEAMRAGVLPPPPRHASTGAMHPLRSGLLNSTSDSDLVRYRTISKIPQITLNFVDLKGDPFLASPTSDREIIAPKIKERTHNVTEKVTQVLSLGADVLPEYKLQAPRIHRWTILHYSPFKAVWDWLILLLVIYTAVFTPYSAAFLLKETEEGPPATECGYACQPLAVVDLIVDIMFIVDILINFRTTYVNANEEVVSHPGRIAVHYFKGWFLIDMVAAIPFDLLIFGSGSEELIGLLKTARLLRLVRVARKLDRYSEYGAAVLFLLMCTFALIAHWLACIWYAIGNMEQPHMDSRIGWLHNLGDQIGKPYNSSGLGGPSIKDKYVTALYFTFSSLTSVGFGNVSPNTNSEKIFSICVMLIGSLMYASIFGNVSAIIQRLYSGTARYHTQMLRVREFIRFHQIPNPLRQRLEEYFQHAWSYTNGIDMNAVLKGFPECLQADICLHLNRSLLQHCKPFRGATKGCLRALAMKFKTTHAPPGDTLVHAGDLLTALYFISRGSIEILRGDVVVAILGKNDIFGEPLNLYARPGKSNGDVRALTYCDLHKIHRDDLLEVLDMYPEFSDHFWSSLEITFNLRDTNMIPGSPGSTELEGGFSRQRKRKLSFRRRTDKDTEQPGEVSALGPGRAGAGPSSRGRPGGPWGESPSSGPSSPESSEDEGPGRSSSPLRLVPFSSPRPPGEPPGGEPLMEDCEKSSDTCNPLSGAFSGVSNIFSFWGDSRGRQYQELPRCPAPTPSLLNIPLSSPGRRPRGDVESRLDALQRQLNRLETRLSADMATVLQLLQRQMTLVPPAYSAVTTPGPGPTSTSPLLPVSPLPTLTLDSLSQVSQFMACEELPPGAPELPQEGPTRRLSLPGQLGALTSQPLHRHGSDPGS

[12] = biological target: T3, Cytochrome P450 2C8 (Homo sapiens, UniProt P10632); experiment: Inhibition of CYP2C8 in human liver microsomes using amodiaquine as substrate incubated for 15 to 45 mins by; type: ADME, Microsome
T3 sequence (P10632 whole entry): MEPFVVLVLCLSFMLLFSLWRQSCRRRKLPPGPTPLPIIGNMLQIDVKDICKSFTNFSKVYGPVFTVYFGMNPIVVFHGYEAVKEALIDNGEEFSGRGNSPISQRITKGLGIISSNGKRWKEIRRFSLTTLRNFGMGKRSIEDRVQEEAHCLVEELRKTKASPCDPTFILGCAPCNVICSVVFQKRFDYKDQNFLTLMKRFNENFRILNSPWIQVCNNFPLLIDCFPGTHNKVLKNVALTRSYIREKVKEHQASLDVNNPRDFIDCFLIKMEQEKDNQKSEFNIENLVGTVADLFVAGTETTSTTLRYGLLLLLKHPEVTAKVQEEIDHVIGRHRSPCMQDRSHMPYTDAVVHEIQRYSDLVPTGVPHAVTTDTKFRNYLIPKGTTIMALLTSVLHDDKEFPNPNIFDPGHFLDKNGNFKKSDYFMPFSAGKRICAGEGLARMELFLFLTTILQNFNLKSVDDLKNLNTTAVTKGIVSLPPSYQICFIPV

[13] = Acute toxicity in ICR mouse assessed as pathological change in lung at 2000 mg/kg, IG measured for 14 days by H and E staining based analysis; type: organism-based; details: in vivo, po, 336 h, time 14 day
[14] = test system: Human immunodeficiency virus 1; experiment: Antiviral activity against drug-resistant HIV-1 harboring RT Y181C mutant infected in human MT4 cells assessed as protection against virus-induced cytopathicity measured after 5 days post-infection by MTT assay; type: functional, organism-based; details: Human immunodeficiency virus 1, MT4, 120 h
[15] = biological target: Cytochrome P450 2C9 (Homo sapiens, UniProt P11712); experiment: Inhibition of CYP2C9 in human liver microsomes using diclofenac as substrate incubated for 15 to 45 mins by; type: ADME, Microsome
Chain of Cytochrome P450 2C9 (P11712 whole entry): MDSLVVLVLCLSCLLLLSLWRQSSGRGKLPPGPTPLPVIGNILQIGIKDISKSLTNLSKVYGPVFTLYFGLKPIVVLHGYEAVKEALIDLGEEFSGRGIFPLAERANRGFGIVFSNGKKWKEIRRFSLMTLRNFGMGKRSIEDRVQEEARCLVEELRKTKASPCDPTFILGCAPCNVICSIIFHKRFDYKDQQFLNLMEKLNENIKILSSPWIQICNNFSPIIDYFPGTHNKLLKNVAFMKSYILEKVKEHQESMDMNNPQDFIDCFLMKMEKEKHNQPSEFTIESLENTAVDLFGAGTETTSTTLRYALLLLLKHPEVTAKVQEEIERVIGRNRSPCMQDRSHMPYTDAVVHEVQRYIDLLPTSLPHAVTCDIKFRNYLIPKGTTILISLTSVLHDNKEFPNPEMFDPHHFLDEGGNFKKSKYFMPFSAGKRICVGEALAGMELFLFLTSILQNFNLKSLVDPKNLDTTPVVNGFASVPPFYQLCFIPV

[16] = biological target: T2, Voltage-gated inwardly rectifying potassium channel KCNH2; experiment: Inhibition of hERG expressed in CHO cells by manual patch-clamp electrophysiology; type: toxicity, cell-based
[17] = Cytotoxicity against human MT4 cells assessed as reduction in cell viability by MTT assay; type: toxicity, cell-based
[18] = Acute toxicity in ICR mouse assessed as body weight change at 2000 mg/kg, IG measured for 14 days; type: organism-based; details: in vivo, po, 336 h, time 14 day
[19] = Protein binding in human plasma assessed as drug recovery rate at 1 uM incubated for 6 hrs; type: ADME, cell-free; details: read-out: Drug recovery
[20] = Drug metabolism in rat liver microsomes assessed as metabolic fraction at 1 uM measured up to 45 mins by LC/MS/MS analysis; type: ADME, Microsome; details: 0.75 h
[21] = Acute toxicity in ICR mouse assessed as pathological change in spleen at 2000 mg/kg, IG measured for 14 days by H and E staining based analysis; type: organism-based; details: in vivo, po, 336 h, time 14 day
[22] = Acute toxicity in ICR mouse assessed as drug tolerance at 2000 mg/kg, IG measured for 14 days; type: organism-based; details: in vivo, po, 336 h, time 14 day
[23] = test system: Human immunodeficiency virus 1; experiment: Antiviral activity against drug-resistant HIV-1 harboring RT L100I mutant infected in human MT4 cells assessed as protection against virus-induced cytopathicity measured after 5 days post-infection by MTT assay; type: functional, organism-based; details: Human immunodeficiency virus 1, MT4, 120 h
[24] = Acute toxicity in ICR mouse assessed as animal mortality at 2000 mg/kg, IG measured for 14 days; type: organism-based; details: in vivo, po, 336 h, time 14 day
[25] = Clearance in Sprague-Dawley rat at 1 mg/kg, iv measured for 0.083 to 24 hrs by LC-MS/MS analysis; type: ADME, organism-based; details: in vivo, time 0.083-24 hrs
[26] = MRT (0 to infinity) in Sprague-Dawley rat at 1 mg/kg, iv measured for 0.083 to 24 hrs by LC-MS/MS analysis; type: ADME, organism-based; details: in vivo, time 0.083-24 hrs
[27] = test system: Human immunodeficiency virus 1; experiment: Antiviral activity against drug-resistant HIV-1 harboring RT E138K mutant infected in human MT4 cells assessed as protection against virus-induced cytopathicity measured after 5 days post-infection by MTT assay; type: functional, organism-based; details: Human immunodeficiency virus 1, MT4, 120 h

For `[2H]C([2H])([2H])c1cc(C#N)cc(C([2H])([2H])[2H])c1Oc1nc(NC2CCN(Cc3ccc(S(N)(=O)=O)cc3)CC2)nc2ccsc12`, the t1/2 [1] was 18.6 min, the AUC(0-t) [2] was 727 ng·h/mL and the IC50 [3] was over 10000 nM. The “Ratio EC50” value [4] was 256, the remaining at 2 h, 1 µM [5] was 92.7% and the MRT last [6] was 143 min. The fraction unbound at 6 h, 1 µM [7] was 0.005, the EC50 [8] was 5.18 nM and the EC50 [9] was 4.46 nM. For the same molecule, the Fm [10] was 14.8%, the “fold change (FC)” value [11] was 1.9 and the IC50 [12] was over 10000 nM. For the same molecule, the Activity [13] was “Non-toxic”, the EC50 [14] was 5.86 nM and the IC50 [15] was over 10000 nM. For the same molecule, the IC50 [16] was 932 nM, the CC50 [17] was over 225000 nM and the Activity [18] was “Non-toxic”. For the same molecule, the recovery at 6 h, 1 µM [19] was 79.4%, the Fm [20] was 28.9% and the Activity [21] was “Non-toxic”. For the same molecule, the Activity [22] was “Non-toxic”, the EC50 [23] was 2.61 nM and the Activity [24] was “Non-toxic”. The clearance [25] was 22.9 mL/min/kg, the MRT inf [26] was 50.4 min and the EC50 [27] was 7.75 nM.
